Measurements published in patent US20240181020A1, “TREATMENT OF HYPOPARATHYROIDISM” (Entera Bio Ltd., priority 2015, published 2024).

Experiments:
[1] = Release of SNAC from tablets with or without sodium bicarbonate in simulated gastric buffer; type: physicochemical; details: tablet with 100 mg sodium bicarbonate vs without; simulated gastric buffer pH 2.0, 37° C., 50 rotations per minute; FIG. 24
Experimental: The tablets were in a form of a homogeneous mixture. Each tablet formulation was subjected to a dissolution test in 100 ml of simulated gastric buffer (without pepsin), pH 2.0, at 37° C., according to USP 23 Apparatus 2 (paddle) with 50 rotations per minute. The amount of released SNAC in each sample was determined chromatographically, using an HPLC apparatus with Cosmosil™ 5 C18-MS-II (4.6 ID×250 mm) column. Mobile phase consisted of 50% acetonitrile and 50% phosphoric acid solution (0.1%). Flow rate was 1 ml/minute and injection volume was 25 μl. Amount of released SNAC was calculated as a percentage of the amount of SNAC in the formulation.

[2] = test system: plasma levels of cAMP, a known marker of PTH activity; assay: Phase I clinical study: plasma cAMP as marker of PTH activity; type: in vivo, human; details: oral 680 μg and subcutaneous 20 μg teriparatide; FIG. 3
Experimental: In addition, plasma levels of cAMP, a known marker of PTH activity, were determined in order to confirm biological activity of administered PTH. cAMP plasma levels were measured following oral administration of 680 μg teriparatide or subcutaneous injection of 20 μg teriparatide, as described hereinabove.

[3] = test system: patients with established primary hypoparathyroidism (PHP); assay: Phase IIa multi-center clinical study of oral teriparatide, 4 times per day for 16 weeks; type: in vivo, human
Experimental: A Phase IIa multi-center clinical study of an exemplary oral formulation comprising teriparatide was conducted on 19 patients with established primary hypoparathyroidism (PHP) (for more than one year). PHP was postsurgical in 13 patients, autoimmune in 5 patients and hereditary in 1 patient.
The average age of the patients was 44.5 years (range 20.3 to 71 years). At enrollment, the patients were treated with an average of 3.64 grams calcium supplement per day (range 1-10.8 grams per day) and 1.1 μg alphacalcidol supplement per day (range 0-2 μg per day). Patients with low hemoglobin, estimated glomerular filtration rate (eGFR) of less than 40 ml per minute per 1.73 m^2, liver enzymes at least 3 times the upper limit, drug or alcohol abuse, kidney/urinary tract stones, 25-hydroxycholecalciferol (25(OH)D) serum levels of less than 20 ng/ml or BMI outside the range of […] were excluded from the study.
The formulation was composed of teriparatide (750 μg per dose), SNAC, soybean trypsin inhibitor and magnesium stearate.
Teriparatide was administered 4 times per day, prior to meals, for 16 weeks. Following the first two doses, plasma samples were taken for pharmacokinetic analysis by determining teriparatide serum levels according to procedures described in Example 1. On the first day of treatment during follow up visits at the end of weeks 1, 2, 3, 4, 6, 8, 10, 12 and 16, serum calcium, phosphorus, albumin, and creatinine were evaluated, and dose adjustment of supplemental calcium medications was performed based on albumin adjusted calcium (ACa) levels. 24 hour urine samples were collected at the end of weeks 8 and 16. Quality of Life was (QoL) was monitored using a standard questionnaire.

[4] = Phase I clinical study: plasma PTH(1-34) after oral teriparatide tablets vs subcutaneous injection; type: in vivo, human; details: healthy volunteers, FIG. 1
Experimental: A Phase I clinical study of exemplary oral formulations comprising teriparatide (parathyroid hormone (1-34)) was conducted at the Hadassah Clinical Research Center. 42 healthy volunteers were included throughout the study.
The formulation was composed of teriparatide (200, 400, 680, 1400 or 1800 μg), SNAC (sodium 8-N-(2-hydroxybenzoyl) aminocaprylate), soybean trypsin inhibitor and magnesium stearate.
Tablets were administered in the morning after an 8-hour overnight fast and immediately followed by 150 ml of water. At each visit a standard meal was provided 3 hours after drug administration.
To determine parathyroid hormone(1-34) concentrations, blood samples (4 ml each) were drawn via an indwelling catheter from the forearm vein at predetermined time points. The cannula was flushed with 1.5 ml normal saline after each sampling. In addition, to avoid sample dilution, 1 ml of blood was drawn and discarded before the next sample. The blood samples were taken at following times: baseline (predose), 15 minutes, 30 minutes, 45 minutes, 60 minutes, 75 minutes, 90 minutes, 105 minutes, 2 hours, 3 hours, 4 hours and 5 hours post-administration. Each blood sample was collected into a single tube containing EDTA (ethylenediaminetetraacetic acid) and placed on ice. […] PTH levels were measured using an IDS-iSYS automated assay for the measurement of intact PTH in human plasma or serum. […]

[5] = Open label comparative pharmacokinetic study: oral teriparatide tablet with water or sodium bicarbonate solution; type: in vivo, human; details: 0.75 mg oral tablet with 150 ml of 3 mg/ml sodium bicarbonate solution vs 150 ml water; ten healthy volunteers; FIG. 25
Experimental: An open label comparative pharmacokinetic study was performed on ten healthy volunteers. On different visits, each volunteer received the same oral tablet containing 0.75 mg of teriparatide, a recombinant form of parathyroid hormone (1-34) (PTH(1-34)). In the first visit, the tablet was administered with 150 ml water, whereas in the second visit the tablet was administered with 150 ml of 3 mg/ml sodium bicarbonate aqueous solution.
The formulation was composed of teriparatide (0.75 mg), SNAC (sodium 8-N-(2-hydroxybenzoyl) aminocaprylate), soybean trypsin inhibitor (SBTI) and a small amount of magnesium stearate.
Tablets were administered in the morning after an 8-hour overnight fast. At each visit a standard meal was provided 3 hours after drug administration. […] There was a two week period between the two visits.
To determine PTH(1-34) concentrations, blood samples were drawn and PTH(1-34) levels were measured using an IDS-iSYS automated assay, using procedures described in Example 1 hereinabove. Relative absorption was determined based on the AUC (area under curve) parameter.

hypoparathyroidism = details: cited from earlier work
[6] = Phase IIa study: teriparatide serum levels after oral dosing before and after a meal; type: in vivo, human; details: second administration on day 1 vs empty stomach
Experimental: To determine parathyroid hormone(1-34) concentrations, blood samples (4 ml each) were drawn via an indwelling catheter from the forearm vein at predetermined time points. The cannula was flushed with 1.5 ml normal saline after each sampling. In addition, to avoid sample dilution, 1 ml of blood was drawn and discarded before the next sample. The blood samples were taken at following times: baseline (predose), 15 minutes, 30 minutes, 45 minutes, 60 minutes, 75 minutes, 90 minutes, 105 minutes, 2 hours, 3 hours, 4 hours and 5 hours post-administration. Each blood sample was collected into a single tube containing EDTA (ethylenediaminetetraacetic acid) and placed on ice. Within 15 minutes of blood collection, samples were centrifuged for 10 minutes at 4° C. […] PTH levels were measured using an IDS-iSYS automated assay for the measurement of intact PTH in human plasma or serum.
Teriparatide was administered 4 times per day, prior to meals, for 16 weeks. […] On the first day of treatment during follow up visits at the end of weeks 1, 2, 3, 4, 6, 8, 10, 12 and 16, serum calcium, phosphorus, albumin, and creatinine were evaluated, and dose adjustment of supplemental calcium medications was performed based on albumin adjusted calcium (ACa) levels. […] Quality of Life was (QoL) was monitored using a standard questionnaire.

[7] = patient, 16-week treatment, FIG. 8

In the case of `O=C(O)CCCCCCCNC(=O)c1ccccc1O` [SNAC, sodium 8-N-(2-hydroxybenzoyl)aminocaprylate], the “dissolution of SNAC from tablets, effect of sodium bicarbonate” value [1] is reported as “considerably enhanced the dissolution”.
For `CC[C@H](C)[C@H](NC(=O)[C@H](CCC(=O)O)NC(=O)[C@H](CO)NC(=O)[C@@H](NC(=O)[C@@H](N)CO)C(C)C)C(=O)N[C@@H](CCC(N)=O)C(=O)N[C@@H](CC(C)C)C(=O)N[C@@H](CCSC)C(=O)N[C@@H](Cc1cnc[nH]1)C(=O)N[C@@H](CC(N)=O)C(=O)N[C@@H](CC(C)C)C(=O)NCC(=O)N[C@@H](CCCCN)C(=O)N[C@@H](Cc1cnc[nH]1)C(=O)N[C@@H](CC(C)C)C(=O)N[C@@H](CC(N)=O)C(=O)N[C@@H](CO)C(=O)N[C@@H](CCSC)C(=O)N[C@@H](CCC(=O)O)C(=O)N[C@@H](CCCN=C(N)N)C(=O)N[C@H](C(=O)N[C@@H](CCC(=O)O)C(=O)N[C@@H](Cc1c[nH]c2ccccc12)C(=O)N[C@@H](CC(C)C)C(=O)N[C@@H](CCCN=C(N)N)C(=O)N[C@@H](CCCCN)C(=O)N[C@@H](CCCCN)C(=O)N[C@@H](CC(C)C)C(=O)N[C@@H](CCC(N)=O)C(=O)N[C@@H](CC(=O)O)C(=O)N[C@H](C(=O)N[C@@H](Cc1cnc[nH]1)C(=O)N[C@@H](CC(N)=O)C(=O)N[C@@H](Cc1ccccc1)C(=O)O)C(C)C)C(C)C` [teriparatide], the “plasma cAMP levels” value [2] was “increased plasma cAMP levels to a similar degree”, the “urinary calcium, margin below the upper limit of normal” value ([3]; 3 subjects with sustained elevations) was “more than 30%” and the “average decrease in urinary calcium” value ([3]; 13 subjects with sustained decrease) was 34%. The urinary calcium ([3]; 13 subjects with sustained decrease, from 209 mg per 24 hours) was 136 mg per 24 hours, the “serum phosphorus after each dose, range” value ([3]; 60 minutes after oral dose, throughout 16 weeks) was 2.9 to 5.2 mg/dL and the “serum phosphorus, average level after each dose” value ([3]; 60 minutes after oral dose, throughout 16 weeks, p<0.02, FIG. 5) was 4.3 mg/dL. For the same compound, the “pre-dose serum phosphorus levels” value ([3]; FIG. 5) was “reduced following 2 weeks of treatment”, the “reduction of calcium intake” value ([3]; after 16 weeks, relative to baseline) was 1278 ± 880 mg and the “average reduction of calcium intake” value ([3]; after 16 weeks, relative to baseline, FIG. 4) was 37%. For the same compound, the calcium intake ([3]; after 16 weeks, baseline 3692 mg) was 2414 mg, the “subjects with urinary calcium above the normal range” value ([3]; at the end of 16 weeks, subjects who completed the study) was “one of the 17” and the “albumin adjusted calcium, range” value ([3]; during treatment, baseline range 7.2-8.99) was 6.97-9.14 md/dL. The “albumin adjusted calcium, mean level” value ([3]; maintained during treatment while calcium intake was decreased, baseline 7.92) was 8.15 mg/dL, the related adverse events ([3]; oral 750 μg per dose, 4 times per day, 16 weeks, 17 subjects completed) was “no related adverse events” and the safety and tolerability ([3]; oral 750 μg per dose, 4 times per day, 16 weeks, 17 subjects completed, over 8000 doses) was “safe and well tolerated”. The “reduction of calcium intake, sample case” value [3, 7] was “over 50%”, the “reduction of urinary calcium levels, sample case” value [3, 7] was “over 50%” and the “total serum levels of 25-hydroxycholecalciferol (25(OH)D), sample case” value ([3]; patient, end of week 4, baseline 32.2 ng/ml, constant alphacalcidol) was 36.7 ng/mL. The “ACa levels, sample case” value ([3]; patient, FIG. 9) was “gradually increased”, the “serum phosphate levels, sample case” value ([3]; patient, FIG. 9) was “gradually decreased” and the “Quality of Life health score, sample case” value ([3]; patient, increased from 70) was 80. For the same compound, the “Cmax of PTH(1-34) following oral administration, relation to dose” value ([4]; oral doses 200, 400, 680, 1400 or 1800 μg) was “proportional to the dose”, the “oral dose of teriparatide providing a Cmax equivalent to that of subcutaneous administration of 20 μg teriparatide” value ([4]; oral tablets with SNAC, soybean trypsin inhibitor, magnesium stearate, 8-hour overnight fast) was “roughly 750 μg” and the “increase in absorption of PTH(1-34) (AUC)” value [5] was “about 35%”. For the same compound, the “reduction in the PTH dose needed to maintain normal serum calcium levels” value (hypoparathyroidism; pump vs twice-daily subcutaneous injection, from 37 μg per day to 13 μg per day) was 65%, the “reduction in urine calcium” value (hypoparathyroidism; subcutaneous infusion by insulin pump vs twice-daily subcutaneous injection) was “more than 50%” and the “PTH(1-34) serum levels, after a meal relative to prior to a meal, sample case” value ([6]; patient, FIG. 10) was “about half”. The “PTH(1-34) serum levels, after a meal relative to prior to a meal” value ([6]; FIGS. 6 and 7) was “about half”.
